The subject of the assay is SARS-CoV-2. It is filed as cell-based.

Molecules are shown by their SMILES.

Regarding `CC(N)C12CC3CC(CC(C3)C1)C2` (stereo not shown) [Rimantadine, rimantadine], the “% of culture cells infected” value is given as at least 80%.

Source of the values: article PMC8537953 (Viruses, 2021).
